Source: patent publication EP0559700B1, “NOVEL PILOCARPINE DERIVATIVES AND PROCESS FOR THEIR PREPARATION” (Santen Oy, priority 1990, dated 1992)
Where two headings read alike, the source gives them in different places.

How the values were obtained:
[1] = Enzyme hydrolysis in plasma/buffer pH 7.4 mixture (80%-20%); assay type: in vitro ADME; conditions: for half-life: 80% plasma/buffer
Protocol: The half-times of enzyme hydrolysis of the novel bispilocarpates according to the invention and of known pilocarpic acid diesters were determined in a plasma/buffer pH 7.4-mixture (80%-20%) at 37°C. The degradation constants (k) for the compounds tested and determined from the plot showing the logarithm of remaining diester as a function of time and the half-lives T½ are shown in the Table II below. From the results it may be seen that in […] the stable test compound degrades under the influence of an enzyme (esterase) to a O,O'-dihydrogen bispilocarpate intermediate, which spontaneously degrades at pH 7.40 to pilocarpine. Consequently the effect of the bispilocarpate intermediate on the rate of formation of pilocarpine is very significant. The formation of pilocarpine was almost complete irrespective of the epimerization possibility of the intermediate. The amount of isopilocarpine formed varied from 0 to 10%, as also the pilocarpine formed epimerized, if the duration of hydrolysis was very long.

[2] = Corneal permeability in a diffusion chamber; assay type: in vitro ADME, rabbit
Source text: The corneal permeability of pilocarpine hydrochloride and its most promising prodrug derivatives as evaluated from the tests described above were studied in a diffusion chamber, wherein the migration of the compound from the delivering phase (epithelium side) thorugh the cornea to the acceptor side (endothelium side) of the diffusion chamber. In the study, rabbit eye cornea was used. From the samples taken from the acceptor side of the diffusion chamber, both the concentration of the prodrug and the liberated drug were determined in the acceptor phase with HPLC. Thus the rate of degradation of the prodrug in the cornea was determined. The permeability coefficients (Papp, cm/s) calculated from the permeability rate (μmol/min), their […] deviations (RSD) and the number of tests, are given in the Table II below.

[3] = Stability of the compounds: buffer hydrolysis (half-times, shelf-life); assay type: physicochemical
Protocol: The stability of the test compounds were tested with buffer hydrolyses. The ionic strength (µ) of the buffers was 0.5, the pH-values used 4.2, 6.0, 7.4 and 9.0 and the temperatures used 37°C, 50 °C, 60 °C and 70 °C.
The half-times T½ calculated on basis of the degradation constant k obtained for each studied compound (T½=0.693/k; k = 2.303 x kk, wherein kk is the angular coefficient of the plot which illustrates the logarithm of the remaining ester as a function of time) in a buffer solution of said pH, are indicated in the Table I below, which values refer to half-times at 37°C.
The storage stability of the derivatives under different storage conditions may be estimated by determining the degradation constants at different temperatures and calculating the degradation constant k at the desired temperature from the equation of the plot corresponding to the Arrhenius equation (1), wherein log k is given as a function of [1/T]. Log k = Log A -(Ea)/(2.303R)x(1)/(T) [formula]
From the degradation constant (k) obtained at the desired temperature the shelf-life-time t10% (t10% = 0.104/k) which indicates the time during which 10% of the drug has degraded may be calculated. By way of example it may be mentioned that the t10%-time of O,O'-dipropionyl (1,4-xylylene) bispilocarpate at 4 °C is almost 500 days.

[4] = Lipophilicity: partition coefficient (octanol-buffer) and capacity factor by RP-HPLC; assay type: physicochemical; conditions: for chromatographic logP: reverse phase HPLC, 22°C, read-out: Capacity factor (22°C) k' (converted)
Source text: The lipophilicity of the compounds were studied by determining the partition coefficients (P) of the compounds at a pH of 7.40. The measurements were made either in an octanol-buffer mixture by determining the concentration of the compound to be studied in the buffer phase by HPLC. The partition coefficients of the very lipophilic compounds were, however, determined by reverse phase (RP) liquid chromatography (HPLC) from the retention time (Beckmann 116 pump and 166 UV detector; Marathon autom. sample feeder). […] From the results it can be seen that the compounds of the invention are considerably more lipophilic than the pilocarpine.

[5] = pKa-value determination by titration in a water-ethanol mixture (50%-50%); assay type: physicochemical; conditions: water-ethanol 50:50; titration in water-ethanol mixture (50%-50%)
[6] = Lipophilicity: partition coefficient (octanol-buffer) and capacity factor by RP-HPLC; assay type: physicochemical; conditions: pH 5.0
[7] = plasma/buffer pH 7.4 (80%-20%), 37°C, read-out: half-times (T½) in plasma (80%), 37°C
[8] = plasma/buffer pH 7.4 (80%-20%), 37°C
[9] = rabbit eye cornea, diffusion chamber, epithelium side to endothelium side, read-out: Permeability coefficient Papp
[10] = buffer pH 6.00, ionic strength 0.5, 37°C, read-out: Half-times in buffers at 37°C, T½, pH 6.00 (converted)
[11] = buffer pH 9.00, ionic strength 0.5, 37°C, read-out: Half-times in buffers at 37°C, T½, pH 9.00 (converted)
[12] = pH 4.2, buffer pH 4.20, ionic strength 0.5, 37°C, read-out: Half-times in buffers at 37°C, T½, pH 4.20 (converted)
[13] = pH 7.4, buffer pH 7.40, ionic strength 0.5, 37°C, read-out: Half-times in buffers at 37°C, T½, pH 7.40 (converted)
[14] = determined from the equation log k'= 0.182 Log P - 0.4086 (RP-HPLC retention)

| SMILES | half-life [1, 7] [days] | Degradation coefficient (k) in plasma (80%), 37°C [1, 8] [min⁻¹] | Papp [2, 9] [×10⁻⁶ cm/s] | chromatographic logP ([4]; rp-hplc) | pKa [5] | half-life [3, 10] [days] | half-life [3, 11] [days] | half-life [3, 12] [days] | half-life [3, 13] [days] | further results |
| --- | --- | --- | --- | --- | --- | --- | --- | --- | --- | --- |
| CC[C@H](C(=O)OCc1ccccc1)[C@H](COC(=O)c1cccc(Cl)c1)Cc1cncn1C [3-chloro-benzoyl, benzyl, reference compound] | 0.0153 | 0.03132 | 7.2 | – | – | – | – | – | – | – |
| CC[C@H](C(=O)OCc1ccc(COC(=O)[C@@H](CC)[C@H](COC(C)=O)Cc2cncn2C)cc1)[C@H](COC(C)=O)Cc1cncn1C [Example 9, O,O'-Diacetyl (1,4-xylylene) bispilocarpate] | – | – | – | 0.146 | 6.03 | – | – | – | – | half-life ([3]; buffer, pH 4.2): 165 days; half-life ([3]; buffer, pH 6): 48.4 days; half-life ([3]; buffer, pH 7.4): 11.4 days; half-life ([3]; buffer, pH 9): 1.42 days; Partition coefficient log P ([4]; pH 7.4): 3.0432^1; Capacity factor (22°C) k' ([4]; rp-hplc): 1.3987; half-life ([1]; pH 7.4): 0.00625 days; Degradation coefficient (k) in plasma (80%), 37°C ([1]; pH 7.4): 0.0737 min⁻¹; Papp ([2]; rabbit): 9.3 ×10⁻⁶ cm/s |
| CCC(=O)OC[C@H](Cc1cncn1C)[C@H](CC)C(=O)OCc1ccc(COC(=O)[C@@H](CC)[C@H](COC(=O)CC)Cc2cncn2C)cc1 [Example 10, O,O'-Dipropionyl (1,4-xylylene) bispilocarpate] | 0.00417 | 0.1184 | 30.5 | 0.362 | 5.8 | 50.6 | 1.96 | 91.8 | 16.7 | shelf-life-time t10% (time during which 10% of the drug has degraded) ([3]; at 4 °C, calculated from the Arrhenius plot): ~500 days |
| CCCC(=O)OC[C@H](Cc1cncn1C)[C@H](CC)C(=O)OCc1ccc(COC(=O)[C@@H](CC)[C@H](COC(=O)CCC)Cc2cncn2C)cc1 [Example 11, O,O'-Dibutyryl (1,4-xylylene) bispilocarpate] | 0.00764 | 0.06149 | 21.5 | 0.603 | 6 | 46.4 | 5.71 | 250 | 7.38 | Partition coefficient log P [4, 14]: 5.5604^2 |
| CCCCC(=O)OC[C@H](Cc1cncn1C)[C@H](CC)C(=O)OCc1ccc(COC(=O)[C@@H](CC)[C@H](COC(=O)CCCC)Cc2cncn2C)cc1 [Example 12, O,O'-Divaleryl (1,4-xylylene) bispilocarpate] | 0.00833 | 0.05734 | 18.2 | 0.868 | 6 | – | 0.292 | – | – | Partition coefficient log P [4, 14]: 7.0165^2 |
| CC[C@H](C(=O)OCc1ccc(COC(=O)[C@@H](CC)[C@H](COC(=O)C2CC2)Cc2cncn2C)cc1)[C@H](COC(=O)C1CC1)Cc1cncn1C [Example 13, O,O'-Dicyclopronylcarbonyl (1,4-xylylene) bispilocarpate] | 0.00972 | 0.04998 | 15.8 | 0.392 | 6 | 352 | 14.1 | 2640 | 148 | Partition coefficient log P ([4]; determined with an octanol-buffer-mixture, pH 7.40, 22 °C): 4.2015^1 |
| CC[C@H](C(=O)OCc1ccccc1)[C@H](COC(=O)c1ccc(C(=O)OC[C@H](Cc2cncn2C)[C@H](CC)C(=O)OCc2ccccc2)cc1)Cc1cncn1C [Example 19, O,O'-Terephtaloyl (dibenzyl) bispilocarpate] | – | – | – | 0.865 | 6 | 38 | 1.58 | 65.9 | 2.29 | Partition coefficient log P [4, 14]: 7.0000^2; half-life ([1]; pH 7.4): 0.149 days; Degradation coefficient (k) in plasma (80%), 37°C ([1]; pH 7.4): 0.00322 min⁻¹ |
| CC[C@H](C(=O)OCCCCCOC(=O)[C@@H](CC)[C@H](COC(=O)C1CC1)Cc1cncn1C)[C@H](COC(=O)C1CC1)Cc1cncn1C [Example 21, O,O'-Dicyclopropylcarbonyl (1,5-pentylene) bispilocarpate] | 0.00903 | – | – | – | – | – | – | – | – | half-life ([3]; buffer, pH 4.2, 50 °C, pH 4.20, read-out: Chemical hydrolysis t½, pH 4.20 (converted)): 193 days; half-life ([3]; buffer, pH 7.4, 50 °C, pH 7.40, read-out: Chemical hydrolysis t½, pH 7.40 (converted)): 23 days; half-life ([3]; buffer, 50 °C, pH 6.00, read-out: Chemical hydrolysis t½, pH 6.00 (converted)): 98.7 days; logD [6]: 0.401 |
| CC[C@H](C(=O)OCc1ccccc1)[C@H](COC(C)=O)Cc1cncn1C [acetyl, benzyl, reference compound] | 0.0111 | 0.04353 | 11.7 | – | – | 144 | 3.29 | 320 | 22.8 | – |
| CC[C@H](C(=O)OCc1ccccc1)[C@H](COC(=O)c1ccccc1)Cc1cncn1C [benzoyl, benzyl, reference compound] | 0.0125 | 0.038 | 8.7 | – | – | 203 | 4.62 | 444 | 85.1 | – |
| CCC(=O)OC[C@H](Cc1cncn1C)[C@H](CC)C(=O)OCc1ccccc1 [propionyl, benzyl, reference compound] | 0.00417 | 0.108 | 14.3 | – | – | 222 | 3.92 | 90.8 | 31.2 | – |
| CCCCC(=O)OC[C@H](Cc1cncn1C)[C@H](CC)C(=O)OCc1ccccc1 [valeryl, benzyl, reference compound] | 0.00625 | 0.07876 | 11.5 | – | – | – | 12.6 | 356 | 48.7 | – |
